Reference: patent publication US20250051344A1, “BIFUNCTIONAL SELECTIVE DEGRADERS OF SMARCA2 AND THERAPEUTIC USES THEREOF” (Nurix Therapeutics, Inc., priority 2023, published 2025)

How the values were obtained:
[1] = target: T1, SMARCA2 (Homo sapiens, UniProt P51531); experiment: SMARCA2 Cellular Degradation Assay (Western blot analysis on Jess platform); type: cell-based; details: for DC50 / Dmax: cellular degradation; for Fold Selectivity SMARCA4/2: ratio DC50 SMARCA4 / DC50 SMARCA2
T1 construct: endogenous in cells
T1 sequence (P51531 whole entry, species assumed): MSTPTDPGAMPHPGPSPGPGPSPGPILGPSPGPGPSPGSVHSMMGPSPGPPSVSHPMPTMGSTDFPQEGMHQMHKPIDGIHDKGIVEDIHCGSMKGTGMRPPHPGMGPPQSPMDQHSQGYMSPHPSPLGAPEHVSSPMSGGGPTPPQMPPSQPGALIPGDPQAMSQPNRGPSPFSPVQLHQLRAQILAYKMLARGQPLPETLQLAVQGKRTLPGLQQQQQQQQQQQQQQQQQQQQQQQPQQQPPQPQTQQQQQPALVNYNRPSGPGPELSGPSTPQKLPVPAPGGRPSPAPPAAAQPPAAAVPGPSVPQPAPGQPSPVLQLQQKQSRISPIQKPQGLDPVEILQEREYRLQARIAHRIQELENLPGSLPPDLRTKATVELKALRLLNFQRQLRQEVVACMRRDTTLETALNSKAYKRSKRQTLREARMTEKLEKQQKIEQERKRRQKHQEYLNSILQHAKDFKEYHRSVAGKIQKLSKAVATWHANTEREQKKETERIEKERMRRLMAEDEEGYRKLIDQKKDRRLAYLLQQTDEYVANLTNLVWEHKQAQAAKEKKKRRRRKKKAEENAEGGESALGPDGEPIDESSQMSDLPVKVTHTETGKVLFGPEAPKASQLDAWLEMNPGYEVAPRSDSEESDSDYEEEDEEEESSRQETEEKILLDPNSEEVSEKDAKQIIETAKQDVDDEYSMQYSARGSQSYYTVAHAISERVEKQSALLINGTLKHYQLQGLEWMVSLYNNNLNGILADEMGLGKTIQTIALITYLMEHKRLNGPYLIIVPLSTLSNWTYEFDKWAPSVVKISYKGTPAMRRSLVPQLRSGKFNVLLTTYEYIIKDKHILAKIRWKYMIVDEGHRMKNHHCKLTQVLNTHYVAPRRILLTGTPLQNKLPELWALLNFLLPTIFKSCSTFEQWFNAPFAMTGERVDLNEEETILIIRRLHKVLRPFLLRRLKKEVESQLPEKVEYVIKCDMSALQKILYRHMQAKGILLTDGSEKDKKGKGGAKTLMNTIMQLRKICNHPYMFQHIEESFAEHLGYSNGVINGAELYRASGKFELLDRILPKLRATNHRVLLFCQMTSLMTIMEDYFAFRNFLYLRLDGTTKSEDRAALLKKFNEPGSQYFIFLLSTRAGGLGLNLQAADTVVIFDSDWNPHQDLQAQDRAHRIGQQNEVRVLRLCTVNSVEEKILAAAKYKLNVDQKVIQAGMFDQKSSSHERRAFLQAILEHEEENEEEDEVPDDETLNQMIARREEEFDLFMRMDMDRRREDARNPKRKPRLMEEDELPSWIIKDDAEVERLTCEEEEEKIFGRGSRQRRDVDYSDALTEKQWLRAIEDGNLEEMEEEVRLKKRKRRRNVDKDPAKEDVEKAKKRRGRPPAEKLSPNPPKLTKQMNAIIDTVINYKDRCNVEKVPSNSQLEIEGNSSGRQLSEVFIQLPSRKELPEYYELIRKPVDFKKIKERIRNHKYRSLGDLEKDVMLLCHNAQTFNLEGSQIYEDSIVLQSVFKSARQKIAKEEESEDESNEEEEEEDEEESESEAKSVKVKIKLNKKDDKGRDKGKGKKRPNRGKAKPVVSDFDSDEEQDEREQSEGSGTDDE
Method: SMARCA2 Cellular Degradation Assay
Western Blot Analysis for SMARCA2 Degradation
Frozen cell pellets were thawed on ice and resuspended in RIPA lysis buffer (Millipore, Cat. No. 20-188) supplemented with 0.2% SDS (Fisher Scientific, Cat. No. 24730020), 200 mM β-glycerophosphate (Alfa Aesar, Cat. No. J62121), 500 mM NaF (Rigaku, Cat. No. 1008046), protease inhibitor (1 tablet per 10 mL, Sigma, Cat. No. 11836170001), 250 U/μL benzonase (Millipore, Cat. No. 71206), 200 mM sodium orthovanadate (FivePhoton, Cat. No. ActVO-4), and 100 mM PMSF (Sigma, Cat. No. 10837091001). 50 μL lysis buffer was used to lyse each pellet containing 5×10E5-1×10E6 live cells extracted from tumors. Lysates were centrifuged for 10 mins at 20,817×g and lysate supernatants were saved for further analysis. Protein levels were determined by the BCA Assay performed according to manufacturer's protocol (EMD Millipore, Cat. No. 71285-3). Samples were evaluated by Western blot analysis on the Jess Platform (ProteinSimple). Lysates were diluted with complete lysis buffer (as described above) and 5 μg of total proteins were loaded onto each capillary. Samples were prepared using the ProteinSimple EZ Standard Pack 1 (Cat. No. PS-ST01EZ-8; containing tubes with powdered (5×) Fluorescent Master Mix, DTT, and biotinylated ladder) and run using the ProteinSimple 25-Capillary Cartridge kit (Cat. No. SM-W004; containing 25-capillary cartridge Wash reagent, and 10× Sample Buffer reagent), the ProteinSimple Anti-Rabbit HRP Detection Module for Jess (Cat. No. DM-001; containing Antibody Diluent, anti-rabbit secondary antibody, Luminol-S, Peroxide, and Streptavidin-HRP), and the ProteinSimple Anti-Mouse NIR Detection Module for Jess (Cat. No. DM-009; containing Antibody Diluent, anti-mouse NIR secondary antibody, and Streptavidin-NIR) as the following describes. The DTT was reconstituted with 40 μL water to make a 400 mM solution, 20 μL of the DTT solution plus 20 μL of 10× Sample Buffer were added to reconstitute the 5× Fluorescent Master Mix, and 20 μL of H2O was used to reconstitute the biotinylated ladder. For each sample, lysate (4 μL) was combined with 5× Fluorescent Master Mix (1 μL) and heated at 95° C. for 5 minutes. Samples were cooled and stored on ice. Primary antibody solution was made using anti-SMARCA2 antibody (Abcam, Cat. No. 240648, 1:10) and anti-beta-Actin antibody (Cell Signaling Technology, Cat. No. 3700S, 1:25) in antibody diluent. The 25-capillary cartridges were prepared per standard ProteinSimple protocol with each sample in a column. For the biotinylated ladder in column 1, the following were added: 5 µL of ladder sample in Row A, 10 μL of antibody diluent in Rows B and C, 10 μL of Streptavidin-NIR in Row D, and 15 μL of a 50:50 Luminol-s/Peroxide solution in Row E. For each test sample (columns 2-25), the following were added per column: 5 μL of sample in Row A, 10 μL of antibody diluent in Row B, 10 μL of primary antibody solution in Row C, 10 μL of secondary antibody in Row D, and 15 μL of a 50:50 Luminol-S/Peroxide solution in Row E. 500 μL wash buffer was added to the wash buffer wells in the cartridge and cartridge was spun at 1000×g for 5 minutes prior to loading into the Jess. Samples were run using the Chemiluminescence and Fluorescence immunoassays in the ProteinSimple Compass for SimpleWestern program (version 5.0.0). After running, SMARCA2, actin, and background curves were identified in the Compass software; note that in the Compass software, the electropherograms are also visualized as bands for comparison with standard Western blot outputs. The electropherogram area reading for each sample curve was normalized to that of the corresponding actin curve per column following background (capillary background) subtraction using the following equation: […]
Following normalization, the percentage of SMARCA2 remaining per sample relative to the vehicle control was calculated as follows: […]

[2] = target: T2, SMARCA4 (Homo sapiens, UniProt P51532); experiment: Cellular degradation assay, SMARCA4 (Table 1); type: cell-based
T2 construct: endogenous in cells
T2 sequence (P51532 whole entry, species assumed): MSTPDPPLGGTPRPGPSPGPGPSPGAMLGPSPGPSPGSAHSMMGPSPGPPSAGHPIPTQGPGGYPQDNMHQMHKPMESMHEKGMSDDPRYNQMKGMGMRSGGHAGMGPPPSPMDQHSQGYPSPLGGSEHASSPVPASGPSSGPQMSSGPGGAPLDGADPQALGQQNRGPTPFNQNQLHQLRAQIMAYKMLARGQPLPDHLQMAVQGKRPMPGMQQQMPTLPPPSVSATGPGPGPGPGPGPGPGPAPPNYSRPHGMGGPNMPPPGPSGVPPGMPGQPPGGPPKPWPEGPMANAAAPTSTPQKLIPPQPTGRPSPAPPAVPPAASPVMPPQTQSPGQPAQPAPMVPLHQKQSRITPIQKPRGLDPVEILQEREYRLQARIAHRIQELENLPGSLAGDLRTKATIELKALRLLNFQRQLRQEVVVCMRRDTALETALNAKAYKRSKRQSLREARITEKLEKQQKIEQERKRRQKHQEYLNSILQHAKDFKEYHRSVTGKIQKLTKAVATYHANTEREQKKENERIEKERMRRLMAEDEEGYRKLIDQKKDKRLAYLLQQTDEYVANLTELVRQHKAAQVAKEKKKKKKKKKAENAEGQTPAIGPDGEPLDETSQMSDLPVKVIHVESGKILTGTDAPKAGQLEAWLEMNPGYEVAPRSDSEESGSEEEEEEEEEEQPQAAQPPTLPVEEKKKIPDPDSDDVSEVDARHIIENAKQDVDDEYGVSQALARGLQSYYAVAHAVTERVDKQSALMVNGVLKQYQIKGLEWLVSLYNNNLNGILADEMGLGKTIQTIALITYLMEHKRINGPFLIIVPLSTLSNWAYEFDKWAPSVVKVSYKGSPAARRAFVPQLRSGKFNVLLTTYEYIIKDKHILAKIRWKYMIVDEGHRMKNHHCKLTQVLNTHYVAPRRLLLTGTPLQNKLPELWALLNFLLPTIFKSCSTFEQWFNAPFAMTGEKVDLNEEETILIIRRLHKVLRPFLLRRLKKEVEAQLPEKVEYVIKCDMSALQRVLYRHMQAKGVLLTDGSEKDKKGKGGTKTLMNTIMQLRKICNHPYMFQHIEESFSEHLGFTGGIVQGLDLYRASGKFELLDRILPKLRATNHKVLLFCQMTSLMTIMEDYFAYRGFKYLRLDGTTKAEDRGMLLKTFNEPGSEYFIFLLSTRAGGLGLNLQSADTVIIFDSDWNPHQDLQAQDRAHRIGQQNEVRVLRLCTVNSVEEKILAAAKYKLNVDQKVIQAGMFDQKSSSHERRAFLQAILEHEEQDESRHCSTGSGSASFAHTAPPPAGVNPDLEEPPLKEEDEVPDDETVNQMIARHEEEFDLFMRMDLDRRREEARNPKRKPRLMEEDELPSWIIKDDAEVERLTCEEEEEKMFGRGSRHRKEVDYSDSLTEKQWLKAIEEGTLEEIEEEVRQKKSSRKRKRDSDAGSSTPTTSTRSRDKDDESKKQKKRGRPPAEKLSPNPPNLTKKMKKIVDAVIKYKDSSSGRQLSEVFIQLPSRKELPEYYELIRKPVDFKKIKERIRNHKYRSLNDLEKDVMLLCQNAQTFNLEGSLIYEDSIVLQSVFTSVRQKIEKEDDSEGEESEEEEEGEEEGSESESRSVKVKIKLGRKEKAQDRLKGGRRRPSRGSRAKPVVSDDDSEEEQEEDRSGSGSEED

Row | SMILES | DC50 [1] [nM] | Dmax [1] [%] | Fold Selectivity SMARCA4/2 [1] | Dmax [2] [%] | DC50 [2] [nM]
1 | CC(C)c1cc(C2(C(=O)N(C)C3CCN(C4COC5(CCN(c6ccc([C@H]7CCC(=O)NC7=O)cc6)CC5)C4)CC3)CCN(c3cnnc(-c4ccccc4O)c3)CC2)no1 (mixture of isomers) [Example 59, N-{1-[(3RS)-8-{4-[(3R)-2,6-dioxopiperidin-3-yl]phenyl}-1-oxa-8-azaspiro[4.5]decan-3-yl]piperidin-4-yl}-1-[6-(2-hydroxyphenyl)pyridazin-4-yl]-N-methyl-4-[5-(propan-2-yl)-1,2-oxazol-3-yl]piperidine-4-carboxamide] | 11.9 | 72.8 | 842 | 26 | 
2 | Cc1cc(C2(C(=O)N(C)C3CCN(CCC4CCN(c5ccc(C6CCC(=O)NC6=O)c(F)c5)CC4)CC3)CCN(c3cnnc(-c4ccccc4O)c3)CC2)on1 (racemic) [Example 60, rac-N-{1-[2-(1-{4-[(3R)-2,6-dioxopiperidin-3-yl]-3-fluorophenyl}piperidin-4-yl)ethyl]piperidin-4-yl}-1-[6-(2-hydroxyphenyl)pyridazin-4-yl]-N-methyl-4-(3-methyl-1,2-oxazol-5-yl)piperidine-4-carboxamide] | 3.79 | 85.7 | 2639 | 35.7 | 
3 | Cc1ccnn1C1(C(=O)N(C)C2CCN(CCC3CCN(c4cccc5c4n(C)c(=O)n5C4CCC(=O)NC4=O)CC3)CC2)CCN(c2cnnc(-c3ccccc3O)c2)CC1 (racemic) [Example 61, rac-N-{1-[2-(1-{1-[(3R)-2,6-dioxopiperidin-3-yl]-3-methyl-2-oxo-2,3-dihydro-1H-1,3-benzodiazol-4-yl}piperidin-4-yl)ethyl]piperidin-4-yl}-1-[6-(2-hydroxyphenyl)pyridazin-4-yl]-n-methyl-4-(5-methyl-1H-pyrazol-1-yl)piperidine-4-carboxamide] | 0.18 | 96.7 | 19 | 86.8 | 3.49
4 | CN(C(=O)C1(c2ccnn2C)CCN(c2cnnc(-c3ccccc3O)c2)CC1)C1CCN(CCC2CCN(c3cccc4c3n(C)c(=O)n4C3CCC(=O)NC3=O)CC2)CC1 (racemic) [Example 62, rac-N-{1-[2-(1-{1-[(3R)-2,6-dioxopiperidin-3-yl]-3-methyl-2-oxo-2,3-dihydro-1H-1,3-benzodiazol-4-yl}piperidin-4-yl)ethyl]piperidin-4-yl}-1-[6-(2-hydroxyphenyl)pyridazin-4-yl]-N-methyl-4-(1-methyl-1H-pyrazol-5-yl)piperidine-4-carboxamide] | 0.25 | 93.2 | 602 | 52.3 | 151
5 | Cc1ccnn1C1(C(=O)N(C)C2CCN(C3COC4(CCN(c5ccc([C@H]6CCC(=O)NC6=O)cc5)CC4)C3)CC2)CCN(c2cnnc(-c3ccccc3O)c2)CC1 (mixture of isomers) [Example 63, N-{1-[(3RS)-8-{4-[(3R)-2,6-dioxopiperidin-3-yl]phenyl}-1-oxa-8-azaspiro[4.5]decan-3-yl]piperidin-4-yl}-1-[6-(2-hydroxyphenyl)pyridazin-4-yl]-n-methyl-4-(5-methyl-1H-pyrazol-1-yl)piperidine-4-carboxamide] | 8.77 | 80.5 | 1140 | 32.2 | 
6 | CN(C(=O)C1(c2cnn(C)c2)CCN(c2cnnc(-c3ccccc3O)c2)CC1)C1CCN(C2COC3(CCN(c4ccc([C@H]5CCC(=O)NC5=O)cc4)CC3)C2)CC1 (mixture of isomers) [Example 64, N-{1-[(3RS)-8-{4-[(3R)-2,6-dioxopiperidin-3-yl]phenyl}-1-oxa-8-azaspiro[4.5]decan-3-yl]piperidin-4-yl}-1-[6-(2-hydroxyphenyl)pyridazin-4-yl]-n-methyl-4-(1-methyl-1H-pyrazol-4-yl)piperidine-4-carboxamide] | 5.51 | 81.3 | 1815 | 30.4 | 
